Measured values from US20060046972A1, “Cytotoxic nucleoside analog compound 003 for treating cancer” (Parker Hughes Institute, priority 2004, published 2006).

What was measured:
[1] = system: DU145 prostate cancer cells; experiment: Confocal laser scanning microscopy of mitotic spindle, DU145; assay type: cell-based, human; conditions: 100 μM
Procedure: Immunofluorenscence was used to examine the spindle features of human cancer cell lines treated with Compound 003 or 0.5% DMSO. Initially, cells at log phase were seeded onto sterile 22 mm coverslips in six -well culture plates. 24 hours later, the cells were treated with compound 003 for 2 hours at 37° C., 5% C02, fixed in methanol (−20° C. 15 min) followed by a 15 minute incubation with PBS +0.1.% Tx-100. The coverslips were incubated with antibodies raised against α-tubulin, γ-tubulin (Sigma Chemical Co., St Louis, Mo.) (40 min 37° C.), washed in PBS-Tx-100, and incubated with an appropriate secondary antibody conjugated to FITC (Jackson ImmunoResearch, Westgrove, Pa.). Cellular DNA was labeled with 5 μM TOTO3 (Molecular Probes, Eugene, Oreg.) for 20 minutes. Coverslips were immediately inverted onto slides in Vectashield (Vector Labs, Burlingame, Calif.) to prevent photobleaching, sealed with nail varnish and stored at −20° C. The slides were examined using a Bio-Rad MRC-1024 Laser Scanning Confocal Microscope equipped with a Kr/Ar laser (BioRad, Hercules, Calif.) mounted on a Nikon Eclipse E800 upright microscope with high numerical aperture objectives (Nikon, Melville, N.Y.). Digital data were processed using Lasersharp (BioRad) and Adobe Photoshop software (Adobe Systems, Mountain View, Calif.). […]

[2] = system: BT20 breast cancer cell line; experiment: Intracellular metabolism of Compound 003 to ala-AZT-MP, BT20; assay type: in vitro ADME, human; conditions: 25 μM Compound 003
Excerpt: Intracellular metabolism of Compound 003 was studied in CEM T-lineage lymphoma cell line, BT20 breast cancer cell line, T98 glioblastoma cell line, and Nalm-6 B-lineage leukemia cell line. CEM and Nalm6 cells were maintained in RPMI supplemented with 10% fetal bovine serum, and 1% penicillin/streptomycin. BT20 and T98 cells w.ere cultured in a medium composed of MEM, 10% fetal bovine serum, 0.1-mM of nonessential amino acids and Earles salts, and 1% penicillin/streptomycin. CEM and Nalm6 cells at a density of 10^6 cells per ml were utilized in the drug metabolism study. BT20 and T98 cells were seeded in 6-cm petri-dishes at 4 million cells and 2 million cells per plate, respectively, the day before the experiment. Either one plate of adherent cells or 10 million non-adherent cells was utilized at each time point. Cells were incubated with various concentrations of the compounds up to 24 hrs at 37° C. After incubation, cells were washed 2 times with ice-cold PBS, and extracted by addition of 0.5-1 ml of 60% methanol. Cell lysates were kept at −20° C. overnight, after which lysates were centrifuged at 15000×g for 10 minutes to remove the cell debris. One hundred microliters of these lysates were injected directly to HPLC. For half-life study, cells at the same density as in drug metabolism study were treated with 100 μM Compound 003 for 2 hrs, after which cells were washed 2 times with ice-cold PBS, and resuspended in warm media until the time they were harvested. For uptake and efflux study, cells were seeded at 2 million cells in 2 ml of media. […] With efflux experiments, cells 1×10^6/mL (the same density as in the uptake study) were incubated with 100 μM Compound 003 for 1 hr, washed 2 times with ice-cold PBS, and resuspended with culture medium without drug, and the metabolite efflux from cells to the medium was measured after 6 hr of incubation. […]

[3] = system: Microsomal or cytosolic fractions of Nalm6 cells; experiment: Enzyme kinetics of Compound 003 metabolism in subcellular fractions, Nalm6; assay type: in vitro ADME, human
Procedure: 1−3×10^8 Nalm6 and BT20 cells were washed with PBS, resuspended in homogenizing buffer containing 10 mM Tris-HCl (pH 7.4) and 250 mM sucrose. Cells were sonicated and spun at 10,000×g, and the resulting supernatant was centrifuged again at 100,000×g to isolate microsomal and cytosolic fractions. The microsomal pellet was resuspended in a buffer containing 10 mM Tris-HCl (pH 7.4), 250 mM sucrose, 1 mM EDTA, and 20% glycerol. Microsomes or cytosols of Nalm6 (80 μg. and 86 μg, respectively) and BT20 cells (59 μg and 160 μg, respectively) were preincubated with or without 1 mM paraoxon in Tris-HCl buffer (pH 7.4) in a total volume of 250 μl for 10 minutes; 1. mM COMPOUND 003 was then added to the incubation mixture, and the reactions were allowed to proceed for another 30 minutes and terminated by addition of 125 μl of acetone. Protein precipitation was then removed by centrifugation; 100 μl of the supernatant was injected directly into the HPLC.
2.2.9 Enzyme Kinetics of Compound 003 Metabolism Microsomal or cytosolic fractions of Nalm6 and BT20 cells were incubated with COMPOUND 003 at various concentrations from 10 μM to 1.2 mM in similar reaction conditions as described above, except without the inhibitor. The reactions were allowed to proceed for 40 minutes. Km and Vmax in the Michaelis-Menten model were estimated by WinNonlin program (Scientific Consulting, Inc.)

## COC(=O)C(C)NP(=O)(OCC1OC(n2cc(C)c(=O)[nH]c2=O)CC1N=[N+]=[N-])Oc1ccc(OC)cc1 (stereo not drawn) [Compound 003, 3′-azidothymidine 5′-[p-methoxyphenylmethoxyalaninyl phosphate]]
[1]
  mitotic spindle formation: induced aberrant multipolar spindle formation
[2]
  time to peak intracellular metabolite concentration: within an hour
[3]; cytosolic fraction
  Km: 765 µM
  Vmax: 541 pmol/mg/min
[3]; microsomal fraction
  Km: 163 µM
  Vmax: 82.3 pmol/mg/min
